From ChEMBL document CHEMBL3046897, “Synthesis of 3-{4-[4-dimethylamino-6-(4-methyl-2-oxo-2H-chromen-7-yloxy)-[1,3,5]triazin-2-ylamino]-phenyl}-2-phenyl-5-(4-pyridin-2-yl-piperazin-1-ylmethyl)-thiazolidin-4-one and their biological evaluation” (2012) come the findings set out here.

Format in all cases: functional
Experiment [1] has as its system Shigella flexneri. Kind of experiment: Antibacterial activity against Shigella flexneri after 24 hr by agar streak dilution method.
Experiment [2] deals with Proteus vulgaris. Kind of experiment: Antibacterial activity against Proteus vulgaris after 24 hr by agar streak dilution method.
Experiment [3] has as its system Salmonella typhi. Kind of experiment: Antibacterial activity against Salmonella enterica subsp. enterica serovar Typhi after 24 hr by agar streak dilution method.
Experiment [4] deals with Klebsiella pneumoniae. The experiment in a line: Antibacterial activity against Klebsiella pneumoniae after 24 hr by agar streak dilution method.
For experiment [5], the system named is Candida albicans. Kind of experiment: Antifungal activity against Candida albicans at 100 ug/disk after 48 hr by paper disk diffusion method. Particulars: read-out: IZ. A general note: A growth-free zone around the sample is the usual read-out of agar diffusion tests.
Experiment [6] relates to Aspergillus clavatus. The experiment in a line: Antifungal activity against Aspergillus clavatus at 100 ug/disc after 48 hr by paper disk diffusion method. Particulars: read-out: IZ.
The subject of experiment [7] is Aspergillus fumigatus. Kind of experiment: Antifungal activity against Aspergillus fumigatus at 100 ug/disc after 48 hr by paper disk diffusion method. Particulars: read-out: IZ.
The test system of experiment [8] is Aspergillus niger. The experiment in a line: Antifungal activity against Aspergillus niger at 100 ug/disk after 48 hr by paper disk diffusion method. The note with it: read-out: IZ.
The subject of experiment [9] is Candida albicans. The experiment in a line: Antifungal activity against Candida albicans after 48 hr by agar streak dilution method.
Experiment [10] relates to Aspergillus clavatus. The experiment in a line: Antifungal activity against Aspergillus clavatus after 48 hr by agar streak dilution method.
The test system of experiment [11] is Aspergillus niger. The experiment in a line: Antifungal activity against Aspergillus niger after 48 hr by agar streak dilution method.
The test system of experiment [12] is Pseudomonas aeruginosa. Kind of experiment: Antibacterial activity against Pseudomonas aeruginosa after 24 hr by agar streak dilution method.
For experiment [13], the system named is Escherichia coli. Kind of experiment: Antibacterial activity against Escherichia coli after 24 hr by agar streak dilution method.
For experiment [14], the system named is Shigella flexneri. The experiment in a line: Antibacterial activity against Shigella flexneri at 100 ug/disc after 24 hr by paper disk diffusion method. The note with it: read-out: IZ.
In experiment [15] the test system is Proteus vulgaris. The experiment in a line: Antibacterial activity against Proteus vulgaris at 100 ug/disk after 24 hr by paper disk diffusion method. The note with it: read-out: IZ.
Experiment [16] concerns Salmonella typhi. The experiment in a line: Antibacterial activity against Salmonella enterica subsp. enterica serovar Typhi at 100 ug/disk after 24 hr by paper disk diffusion method. Particulars: read-out: IZ.
Experiment [17] concerns Klebsiella pneumoniae. Kind of experiment: Antibacterial activity against Klebsiella pneumoniae at 100 ug/disk after 24 hr by paper disk diffusion method. Particulars: read-out: IZ.
For experiment [18], the system named is Pseudomonas aeruginosa. Kind of experiment: Antibacterial activity against Pseudomonas aeruginosa at 100 ug/disk after 24 hr by paper disk diffusion method. Particulars: read-out: IZ.
For experiment [19], the system named is Escherichia coli. The experiment in a line: Antibacterial activity against Escherichia coli at 100 ug/disk after 24 hr by paper disk diffusion method. The note with it: read-out: IZ.
The subject of experiment [20] is Bacillus subtilis. Kind of experiment: Antibacterial activity against Bacillus subtilis after 24 hr by agar streak dilution method.
In experiment [21] the test system is Staphylococcus aureus. Kind of experiment: Antibacterial activity against Staphylococcus aureus after 24 hr by agar streak dilution method.
For experiment [22], the system named is Bacillus subtilis. The experiment in a line: Antibacterial activity against Bacillus subtilis at 100 ug/disk after 24 hr by paper disk diffusion method. The note with it: read-out: IZ.
The subject of experiment [23] is Staphylococcus aureus. The experiment in a line: Antibacterial activity against Staphylococcus aureus at 100 ug/disc after 24 hr by paper disk diffusion method. Particulars: read-out: IZ.
In experiment [24] the test system is Aspergillus fumigatus. The experiment in a line: Antifungal activity against Aspergillus fumigatus after 48 hr by agar streak dilution method.

Converted amounts (≈) assume the structure as drawn.

The MIC is the least concentration at which growth counts as inhibited. A higher MIC goes with a need for much substance. Consider `COc1ccc(C2SCC(=O)N2c2ccc(Nc3nc(Oc4ccc5c(C)cc(=O)oc5c4)nc(N(C)C)n3)cc2)cc1` (configuration not stated), for which the minimal inhibitory concentration (MIC) with Shigella flexneri [1] worked out at 100 µg/mL (≈ 168 µM); against Proteus vulgaris [2] it was 50 µg/mL (≈ 83.8 µM); in the experiment with Salmonella typhi [3] it was 50 µg/mL (≈ 83.8 µM); in the experiment on Klebsiella pneumoniae [4], 50 µg/mL (≈ 83.8 µM); in the experiment with Candida albicans [9] it was 50 µg/mL (≈ 83.8 µM); with Aspergillus clavatus [10], 100 µg/mL (≈ 168 µM). Moreover, the MIC came out at 50 µg/mL (≈ 83.8 µM) in the experiment on Aspergillus niger [11]; 100 µg/mL (≈ 168 µM) with Pseudomonas aeruginosa [12]; 100 µg/mL (≈ 168 µM) in the experiment with Escherichia coli [13]; 100 µg/mL (≈ 168 µM) in the experiment on Bacillus subtilis [20]; 50 µg/mL (≈ 83.8 µM) against Staphylococcus aureus [21]; 50 µg/mL (≈ 83.8 µM) against Aspergillus fumigatus [24]. Further, the zone of inhibition at 100 µg/disc with Candida albicans [5] stood at 20 mm; in the experiment on Aspergillus clavatus [6], 16 mm; with Aspergillus fumigatus [7], 17 mm; with Aspergillus niger [8], 19 mm; in the experiment on Shigella flexneri [14] it was 13 mm; in the experiment on Proteus vulgaris [15] it was 18 mm. Besides, the zone of inhibition at 100 µg/disc was 19 mm with Salmonella typhi [16]; 17 mm with Klebsiella pneumoniae [17]; 15 mm in the experiment on Pseudomonas aeruginosa [18]; 12 mm in the experiment on Escherichia coli [19]; 16 mm in the experiment on Bacillus subtilis [22]; 18 mm with Staphylococcus aureus [23].
For the molecule `COc1ccc(C2SC(CN3CCN(c4ccccn4)CC3)C(=O)N2c2ccc(Nc3nc(Oc4ccc5c(C)cc(=O)oc5c4)nc(N(C)C)n3)cc2)cc1OC` (configuration not stated), the MIC against Shigella flexneri [1] amounted to 50 µg/mL (≈ 62.3 µM); in the experiment on Proteus vulgaris [2], 100 µg/mL (≈ 125 µM); against Salmonella typhi [3], 50 µg/mL (≈ 62.3 µM); with Klebsiella pneumoniae [4] it was 100 µg/mL (≈ 125 µM); against Candida albicans [9], 100 µg/mL (≈ 125 µM); with Aspergillus clavatus [10] it was 50 µg/mL (≈ 62.3 µM). For the same molecule, the MIC with Aspergillus niger [11] was found to be 50 µg/mL (≈ 62.3 µM); in the experiment on Pseudomonas aeruginosa [12] it was 100 µg/mL (≈ 125 µM); against Escherichia coli [13] it was 100 µg/mL (≈ 125 µM); against Bacillus subtilis [20], 50 µg/mL (≈ 62.3 µM); in the experiment with Staphylococcus aureus [21], 25 µg/mL (≈ 31.2 µM); in the experiment on Aspergillus fumigatus [24], 100 µg/mL (≈ 125 µM). Moreover, the zone of inhibition at 100 µg/disc in the experiment on Candida albicans [5] was less than 10 mm; in the experiment with Aspergillus clavatus [6] it was 17 mm; in the experiment on Aspergillus fumigatus [7] it was 13 mm; in the experiment on Aspergillus niger [8], 19 mm; in the experiment on Shigella flexneri [14] it was 19 mm; with Proteus vulgaris [15], 15 mm. Further, the zone of inhibition at 100 µg/disc with Salmonella typhi [16] was determined as 17 mm; in the experiment with Klebsiella pneumoniae [17], 11 mm; in the experiment with Pseudomonas aeruginosa [18], 15 mm; with Escherichia coli [19], 13 mm; with Bacillus subtilis [22], 17 mm; with Staphylococcus aureus [23], 20 mm.
Regarding `Cc1cc(=O)oc2cc(Oc3nc(Nc4ccc(/N=C/c5ccc(Cl)c(Cl)c5)cc4)nc(N(C)C)n3)ccc12`, the MIC in the experiment on Shigella flexneri [1], in the experiment on Proteus vulgaris [2], against Salmonella typhi [3], with Klebsiella pneumoniae [4], in the experiment on Candida albicans [9] and with Aspergillus clavatus [10] was 100 µg/mL (≈ 178 µM) throughout. The MIC against Aspergillus niger [11] was determined as 100 µg/mL (≈ 178 µM); in the experiment on Pseudomonas aeruginosa [12], 50 µg/mL (≈ 89.1 µM); against Escherichia coli [13], 100 µg/mL (≈ 178 µM); against Bacillus subtilis [20], 100 µg/mL (≈ 178 µM); against Staphylococcus aureus [21], 100 µg/mL (≈ 178 µM); with Aspergillus fumigatus [24], 100 µg/mL (≈ 178 µM). Further, the zone of inhibition at 100 µg/disc with Candida albicans [5] is 10 mm; with Aspergillus clavatus [6] it was 15 mm; in the experiment with Aspergillus fumigatus [7], 12 mm; in the experiment on Aspergillus niger [8] it was less than 10 mm; in the experiment with Shigella flexneri [14] it was 15 mm; in the experiment on Proteus vulgaris [15], 12 mm. The zone of inhibition at 100 µg/disc was determined as 14 mm in the experiment with Salmonella typhi [16]; 12 mm in the experiment on Klebsiella pneumoniae [17]; 16 mm in the experiment on Pseudomonas aeruginosa [18]; 11 mm with Escherichia coli [19]; 15 mm in the experiment with Bacillus subtilis [22]; 13 mm in the experiment on Staphylococcus aureus [23].
